In PMC5514153, “Targeting PTPRZ inhibits stem cell-like properties and tumorigenicity in glioblastoma cells” (Scientific Reports, 2017) one finds IC50 data, which are given here for 1 molecule.

In one experiment the target is T1, hPTPRA (Homo sapiens, UniProt P18433).
T1 construct: Recombinant proteins corresponding to the entire intracellular regions (ICRs) of PTPRZ1, PTPRA, and PTPRM; made in house; host or cells: baculovirus-silkworm expression system
The experiment in a line: In vitro PTPase assay (DiFMUP), PTPRA. The format is biochemical. Particulars: 60-min preincubation. The method, then: (§1) Figure 4 NAZ2329, an allosteric inhibitor of R5 RPTP subfamily members. (A) Structure of NAZ2329. (B) Effect of preincubation of NAZ2329 on its inhibitory activity against PTPRZ. Recombinant human PTPRZ1 enzyme (the whole intracellular region) was premixed with NAZ2329 for the indicated times and followed by addition of a fluorogenic DiFMUP (non-specific PTP substrate, 6,8-difluoro-4-methylumbiliferyl phosphate) to measure PTP inhibitory activity. (C) Time dependence. The PTPRZ1 enzyme was added to the inhibitor–substrate mixture, and the inhibitory activity was determined at each time point relative to the vehicle control. (D) Reversibility of inhibition. […] The mixture was then 20-fold diluted, and recovered PTP activity was expressed as the relative activity compared with the vehicle-treated enzyme. […] PTPRZ1 enzymes were preincubated with NAZ2329 for 60 min, and the PTP activity was measured using DiFMUP. […]
(§2) Recombinant proteins corresponding to the entire intracellular regions (ICRs) of PTPRZ1, PTPRA, and PTPRM were expressed using a baculovirus-silkworm expression system, and purified as described. The ICRs of PTPRG, PTPRS, and PTPRB and the catalytic domains of PTPN1 and PTPN6 were expressed as glutathione-S-transferase (GST) fusion proteins from each pGEX plasmid in Escherichia coli strain BL21 (ref. [6]). […]

In the next experiment the target is T2, mPTPRB (Mus musculus, UniProt B2RU80).
T2 construct: The ICRs of PTPRG, PTPRS, and PTPRB and the catalytic domains of PTPN1 and PTPN6; GST (N); made in house; host or cells: Escherichia coli BL21
T2 sequence (B2RU80 1644-1997 limits assumed): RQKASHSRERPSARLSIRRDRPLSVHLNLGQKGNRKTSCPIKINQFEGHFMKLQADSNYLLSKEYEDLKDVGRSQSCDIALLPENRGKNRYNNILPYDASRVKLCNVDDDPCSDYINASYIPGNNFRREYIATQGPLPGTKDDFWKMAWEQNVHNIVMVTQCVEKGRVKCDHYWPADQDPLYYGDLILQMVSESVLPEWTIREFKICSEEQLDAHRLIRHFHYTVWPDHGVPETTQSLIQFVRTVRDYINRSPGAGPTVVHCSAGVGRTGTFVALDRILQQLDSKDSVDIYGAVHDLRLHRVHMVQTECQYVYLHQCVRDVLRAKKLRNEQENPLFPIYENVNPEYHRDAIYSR
The experiment in a line: In vitro PTPase assay (DiFMUP), PTPRB. The experiment is classed as biochemical. Conditions: 60-min preincubation. The procedure: as §1, §2

As usually defined, the IC50 is the point on the concentration scale where inhibition reaches its midpoint. Take `CCOc1ccc(C(F)(F)F)cc1CSc1ccsc1C(=O)NS(=O)(=O)c1ccccc1` [NAZ2329]: the figures for the 50% inhibitory concentration (IC50) against hPTPRA and against mPTPRB were 35.7 µM and 35.4 µM, respectively.
